# Assay results as given in patent publication US9321760B2 (Merck Patent GmbH, priority 2011, dated 2016).
# Target: P70S6K (T412E mutant) (Homo sapiens (Human), UniProt P23443, T412E)
# Experiment: P70S6K enzyme assay
# Assay type: biochemical
# Conditions: 3 nM P70S6K T412E mutant, 24 μM ATP, 1 μM FITC-AHA-AKRRRLSSLRA-OH substrate peptide, 90 min at 25° C.
# Procedure: The IC50 values reported for the compounds in the Experimental section were derived from the following protocol for the p70S6K enzyme assay.
# P70S6K inhibitor compounds were diluted and plated in 96 well plates. A reaction mixture including the following components was then added to the compound plate to initiate the enzyme reaction; P70S6K (3 nM, T412E mutant, Millipore) was mixed with 24 μM ATP in an assay buffer containing 100 mM Hepes (pH 7.5), 5 mM MgCl2, 1 mM DTT, 0.015% Brij and 1 μM of the substrate peptide FITC-AHA-AKRRRLSSLRA-OH (derived from the S6 ribosomal protein sequence, FITC=fluorescein isothiocyanate, AHA=6-aminohexanoic acid). The reaction was incubated for 90 min at 25° C., before the addition of 10 mM EDTA to stop the reaction. The proportion of substrate and product (phosphorylated) peptide was analysed on a Caliper Life Sciences Lab Chip 3000, using a pressure of −1.4 psi, and upstream and downstream voltages of −3000 and −700 respectively. Product peaks were resolved before substrate peaks on the resulting chromatograms.
# Chain of P70S6K (T412E mutant) (P23443 whole entry T412E): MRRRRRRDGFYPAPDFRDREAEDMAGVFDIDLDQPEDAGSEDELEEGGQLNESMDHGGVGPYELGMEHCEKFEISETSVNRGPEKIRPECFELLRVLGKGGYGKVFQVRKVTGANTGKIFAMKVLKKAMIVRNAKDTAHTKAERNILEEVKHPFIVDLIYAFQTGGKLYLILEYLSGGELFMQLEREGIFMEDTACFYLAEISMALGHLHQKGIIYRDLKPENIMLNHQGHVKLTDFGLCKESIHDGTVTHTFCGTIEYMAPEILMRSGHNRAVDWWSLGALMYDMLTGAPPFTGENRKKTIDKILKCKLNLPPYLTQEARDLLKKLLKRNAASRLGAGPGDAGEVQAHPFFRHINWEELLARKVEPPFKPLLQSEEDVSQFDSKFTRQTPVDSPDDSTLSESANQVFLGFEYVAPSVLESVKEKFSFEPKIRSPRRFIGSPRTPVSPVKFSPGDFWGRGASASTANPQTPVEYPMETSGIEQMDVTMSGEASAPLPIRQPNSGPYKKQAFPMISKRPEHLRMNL
row,IC50 [nM],SMILES
1,6,"Cn1cc(-c2c(N)ncnc2N2CCN([C@@H](CN)c3ccc(C(F)(F)F)cc3)CC2)cn1 [Example 42, 6-{4-[(R)-2-Amino-1-(4-trifluoromethyl-phenyl)-ethyl]-piperazin-1-yl}-5-(1-methyl-1H-pyrazol-4-yl)-pyrimidin-4-ylamine]"
2,98,"Cn1ccc(-c2c(N)ncnc2N2CCN(C(CN)c3ccc(C(F)(F)F)cc3)CC2)n1 (stereo not shown) [Example 43, 6-{4-[2-Amino-1-(4-trifluoromethyl-phenyl)-ethyl]-piperazin-1-yl}-5-(1-methyl-1H-pyrazol-3-yl)-pyrimidin-4-ylamine]"
3,630,"Nc1ncnc(N2CCC(Cc3ccc(Cl)cc3)CC2)c1Br [Example 46, 5-Bromo-6{4-(4-chlorobenzyl)-piperidin-1-yl}pyrimidin-4-amine]"
4,960,"Nc1ncnc(N2CCC(Cc3ccc(C(F)(F)F)cc3)CC2)c1Br [Example 47, 5-Bromo-6{4-(4-trifluoromethylbenzyl)-piperidin-1-yl}pyrimidin-4-amine]"
5,450,"Nc1ncnc(N2CCC(Cc3ccc(-c4ccc(F)cc4)cc3)CC2)c1-c1ccc(F)cc1 [Example 50, 5-(4-Fluorophenyl)-6{4-(4-(4-fluorophenyl)benzyl)-piperidin-1-yl}pyrimidin-4-amine]"
6,41,"NCC(c1ccc(C(F)(F)F)cc1)C1CCN(c2ncnc(N)c2Br)CC1 (stereo not shown) [Example 51, 6-{4-[2-Amino-1-(4-trifluoromethyl-phenyl)-ethyl]-piperidin-1-yl}-5-bromo-pyrimidin-4-ylamine]"
7,3.3,"NCC(c1ccc(C(F)(F)F)cc1)C1CCN(c2ncnc(N)c2-c2ccc(F)cc2)CC1 (stereo not shown) [Example 52, 6-{4-[2-Amino-1-(4-trifluoromethyl-phenyl)-ethyl]-piperidin-1-yl}-5-(4-fluoro-phenyl)-pyrimidin-4-ylamine]"
8,4.5,"NC[C@@H](c1ccc(C(F)(F)F)cc1)C1CCN(c2ncnc(N)c2-c2ccc(F)cc2)CC1 [Example 54, 6-{4-[(R)-2-Amino-1-(4-trifluoromethyl-phenyl)-ethyl]-piperidin-1-yl}-5-(4-fluoro-phenyl)-pyrimidin-4-ylamine]"
9,140,"NCC(c1ccc(C(F)(F)F)cc1)C1CCN(c2ncnc(N)c2-c2cnoc2)CC1 (stereo not shown) [Example 59, 6-(4-(2-amino-1-(4-(trifluoromethyl)phenyl)ethyl)piperidin-1-yl)-5-(isoxazol-4-yl)pyrimidin-4-amine]"
10,74,"Nc1ncnc(N2CCN(Cc3cc(Cl)c(Cl)cc3O)CC2)c1-c1ccc(F)cc1 [Example 60, 2-((4-(6-amino-5-(4-fluorophenyl)pyrimidin-4-yl)piperazin-1-yl)methyl)-4,5-dichlorophenol]"
11,980,"Nc1ncnc(N2CCN(Cc3cc(Cl)c(Cl)cc3OC3CNC3)CC2)c1-c1ccc(F)cc1 [Example 62, 6-(4-(2-(azetidin-3-yloxy)-4,5-dichlorobenzyl)piperazin-1-yl)-5-(4-fluorophenyl)pyrimidin-4-amine]"
12,50,"Nc1ncnc(N2CCN(C(CN3CCCCC3)c3cccc(F)c3)CC2)c1-c1ccc(F)cc1 (stereo not shown) [Example 64, 5-(4-Fluorophenyl)-6{4-[1-(3-fluoro-phenyl)-2-piperidin-1-yl-ethyl]-piperazin-1-yl}-pyrimidin-4-ylamine]"
13,120,"Nc1ncnc(N2CCN(C(CN3CCCCC3)c3cccc(C(F)(F)F)c3)CC2)c1-c1ccc(F)cc1 (stereo not shown) [Example 65, 5-(4-Fluorophenyl)-6{4-[1-(3-trifluoro-phenyl)-2-piperidin-1-yl-ethyl]-piperazin-1-yl}-pyrimidin-4-ylamine]"
14,82,"Nc1ncnc(N2CCN(C(CN3CCCC3)c3cccc(C(F)(F)F)c3)CC2)c1-c1ccc(F)cc1 (stereo not shown) [Example 66, 5-(4-Fluorophenyl)-6{4-[1-(3-trifluoromethyl-phenyl)-2-pyrrolidin-1-yl-ethyl]-piperazin-1-yl}-pyrimidin-4-ylamine]"
15,24,"Nc1ncnc(N2CCN(C(CN3CCCCC3)c3ccc(F)cc3)CC2)c1-c1ccc(F)cc1 (stereo not shown) [Example 67, 5-(4-Fluorophenyl)-6{4-[1-(4-fluoro-phenyl)-2-piperidin-1-yl-ethyl]-piperazin-1-yl}-pyrimidin-4-ylamine]"
16,> 1000,"Nc1ncnc(N2CCN(C(CN3CCCCC3)c3cccc(F)c3)CC2)c1Br (stereo not shown) [Example 68, 5-Bromo-6{4-[1-(3-fluoro-phenyl)-2-piperidin-1-yl-ethyl]-piperazin-1-yl}-pyrimidin-4-ylamine]"
17,> 1000,"Nc1ncnc(N2CCN(C(CN3CCCC3)c3cccc(C(F)(F)F)c3)CC2)c1Br (stereo not shown) [Example 69, 5-Bromo-6{4-[1-(3-trifluoromethyl-phenyl)-2-pyrrolidin-1-yl-ethyl]-piperazin-1-yl}-pyrimidin-4-ylamine]"
18,> 1000,"Nc1cc(N2CCN(C(CN3CCCC3)c3cccc(C(F)(F)F)c3)CC2)ncn1 (stereo not shown) [Example 73, 6-{4-[1-(3-trifluoromethyl-phenyl)-2-pyrrolidin-1-yl-ethyl]-piperazin-1-yl}-pyrimidin-4-ylamine]"
19,370,"NCC(c1ccc(C(F)(F)F)cc1)N1CCN(c2ncnc(N)c2F)CC1 (stereo not shown) [Example 74, 6-{4-[2-Amino-1-(4-trifluoromethyl-phenyl)-ethyl]-piperazin-1-yl}-5-fluoro-pyrimidin-4-ylamine]"

# The remaining lines, values behind:
row,SMILES,IC50 [nM]
1,"Cn1cc(-c2c(N)ncnc2N2CCN(C(CN)c3ccc(C(F)(F)F)cc3)CC2)cn1 (stereo not shown) [Example 40, 6-{4-[2-Amino-1-(4-trifluoromethyl-phenyl)-ethyl]-piperazin-1-yl}-5-(1-methyl-1H-pyrazol-4-yl)-pyrimidin-4-ylamine]",11
2,"Cn1cc(-c2c(N)ncnc2N2CCN([C@H](CN)c3ccc(C(F)(F)F)cc3)CC2)cn1 [Example 41, 6-{4-[(S)-2-Amino-1-(4-trifluoromethyl-phenyl)-ethyl]-piperazin-1-yl}-5-(1-methyl-1H-pyrazol-4-yl)-pyrimidin-4-ylamine]",14
3,"Cn1ccc(-c2c(N)ncnc2N2CCN(C(CNC(C)(C)C(C)(C)O)c3ccc(C(F)(F)F)cc3)CC2)n1 (stereo not shown) [Example 44, 3-[2-{4-[6-Amino-5-(1-methyl-1H-pyrazol-3-yl)-pyrimidin-4-yl]-piperazin-1-yl}-2-(4-trifluoromethyl-phenyl)-ethylamino]-2,3-dimethyl-butan-2-ol]",150
4,"NCC(c1ccc(C(F)(F)F)cc1)N1CCN(c2ncnc(N)c2CN2CC(F)C2)CC1 (stereo not shown) [Example 45, 6-(4-(2-amino-1-(4-(trifluoromethyl)phenyl)ethyl)piperazin-1-yl)-5-((3-fluoroazetidin-1-yl)methyl)pyrimidin-4-amine]",210
5,"Nc1ncnc(N2CCC(Cc3ccc(C(F)(F)F)cc3)CC2)c1-c1ccc(F)cc1 [Example 48, 5-(4-Fluorophenyl)-6{4-(4-trifluoromethylbenzyl)-piperidin-1-yl}pyrimidin-4-amine]",66
6,"Nc1ncnc(N2CCC(Cc3ccc(Cl)cc3)CC2)c1-c1ccc(F)cc1 [Example 49, 5-(4-Fluorophenyl)-6{4-(4-chlorobenzyl)-piperidin-1-yl}pyrimidin-4-amine]",16
7,"NC[C@H](c1ccc(C(F)(F)F)cc1)C1CCN(c2ncnc(N)c2-c2ccc(F)cc2)CC1 [Example 53, 6-{4-[(S)-2-Amino-1-(4-trifluoromethyl-phenyl)-ethyl]-piperidin-1-yl}-5-(4-fluoro-phenyl)-pyrimidin-4-ylamine]",3.2
8,"NCC(c1ccc(C(F)(F)F)cc1)C1CCN(c2ncnc(N)c2-c2cn[nH]c2)CC1 (stereo not shown) [Example 55, 6-(4-(2-amino-1-(4-(trifluoromethyl)phenyl)ethyl)piperidin-1-yl)-5-(1H-pyrazol-4-yl)pyrimidin-4-amine]",5.2
9,"Cn1cc(-c2c(N)ncnc2N2CCC(C(CN)c3ccc(C(F)(F)F)cc3)CC2)cn1 (stereo not shown) [Example 58, 6-(4-(2-amino-1-(4-(trifluoromethyl)phenyl)ethyl)piperidin-1-yl)-5-(1-methyl-1H-pyrazol-4-yl)pyrimidin-4-amine]",31
10,"CC(c1ccc(Cl)cc1O)N1CCN(c2ncnc(N)c2-c2ccc(F)cc2)CC1 (stereo not shown) [Example 61, 2-(1-(4-(6-amino-5-(4-fluorophenyl)pyrimidin-4-yl)piperazin-1-yl)ethyl)-5-chlorophenol]",33
11,"CC(c1ccc(Cl)cc1OC1CNC1)N1CCN(c2ncnc(N)c2-c2ccc(F)cc2)CC1 (stereo not shown) [Example 63, 6-(4-{1-[2-(Azetidin-3-yloxy)-4-chloro-phenyl]-ethyl}-piperazin-1-yl)-5-(4-fluoro-phenyl)-pyrimidin-4-ylamine]",980
12,"Nc1ncnc(N2CCN(C(CN3CCCCC3)c3cccc(C(F)(F)F)c3)CC2)c1Br (stereo not shown) [Example 70, 5-Bromo-6{4-[1-(3-trifluoromethyl-phenyl)-2-piperidin-1-yl-ethyl]-piperazin-1-yl}-pyrimidin-4-ylamine]",> 1000
13,"Nc1cc(N2CCN(C(CN3CCCCC3)c3cccc(C(F)(F)F)c3)CC2)ncn1 (stereo not shown) [Example 71, 6-{4-[1-(3-trifluoromethyl-phenyl)-2-piperidin-1-yl-ethyl]-piperazin-1-yl}-pyrimidin-4-ylamine]",> 1000
14,"Nc1ncnc(N2CCN(C(CN3CCCCC3)c3ccc(F)cc3)CC2)c1Br (stereo not shown) [Example 72, 5-Bromo-6{4-[1-(4-fluoro-phenyl)-2-piperidin-1-yl-ethyl]-piperazin-1-yl}-pyrimidin-4-ylamine]",> 1000
15,"Nc1ncnc(N2CCN(C(CN3CCCC3)c3ccc(F)cc3)CC2)c1-c1ccc(F)cc1 (stereo not shown) [Example 75, 5-(4-Fluorophenyl)-6{4-[1-(4-fluorophenyl)-2-pyrrolidin-1-yl-ethyl]-piperazin-1-yl}-pyrimidin-4-ylamine]",15
